Measured values reported in ChEMBL document CHEMBL1150853, “A new dehydrogeranylgeraniol antioxidant from Saururus cernuus that inhibits intracellular reactive oxygen species (ROS)-catalyzed oxidation within HL-60 cells” (J Nat Prod, 2001).
The source made the active and inactive calls. The calls are words filed in the database; no cut-off is given here.

How the values were obtained:
HL-60 [1] = assay: Cytotoxicity against human HL60 cells at 5 ug/mL after 4 hrs by XTT assay; format: cell-based; details: hl-60, 4 h
HL-60 [2] = assay: Antioxidant activity in phorbol 12-myristate 13-acetate-stimulated human HL60 cells assessed as inhibition of exogenous hydrogen peroxide-catalyzed oxidation of 2',7'-dichlorodihydrofluorescein diacetate at 5 ug/mL pretreated 30 mins before PMA challenge by flow cytometry; format: functional
[3] = tested on: Radical scavenging activity; assay: Antioxidant activity assessed as DPPH radical scavenging activity after 30 mins by modified 2D TLC autographic assay; format: functional
Colletotrichum acutatum = assay: Antifungal activity against Colletotrichum acutatum at 100 nmol by 2D-TLC bioautography assay; format: functional, organism-based
HL-60 [4] = assay: Antioxidant activity in human HL60 cells assessed as inhibition of endogenous hydrogen peroxide-catalyzed oxidation of 2',7'-dichlorodihydrofluorescein diacetate at 5 ug/mL by flow cytometry; format: functional
[5] = tested on: Colletotrichum gloeosporioides; assay: Antifungal activity against Colletotrichum gloeosporioides at 100 nmol by 2D-TLC bioautography assay; format: functional, organism-based
Colletotrichum fragariae = assay: Antifungal activity against Colletotrichum fragariae at 100 nmol by 2D-TLC bioautography assay; format: functional, organism-based
HL-60 [6] = assay: Antioxidant activity in phorbol 12-myristate 13-acetate-stimulated human HL60 cells assessed as inhibition of exogenous hydrogen peroxide-catalyzed oxidation of 2',7'-dichlorodihydrofluorescein diacetate at 50 ug/mL pretreated 30 mins before PMA challenge by flow cytometry; format: functional, cell-based
HL-60 [7] = assay: Antioxidant activity in human HL60 cells assessed as inhibition of endogenous hydrogen peroxide-catalyzed oxidation of 2',7'-dichlorodihydrofluorescein diacetate at 50 ug/mL by flow cytometry; format: functional, cell-based

Row | Compound | Activity (HL-60 [1]) | inhibition at 5 µg/mL (HL-60 [2]) | Activity [3] | Activity (Colletotrichum acutatum) | inhibition at 5 µg/mL (HL-60 [4]) | Activity [5] | Activity (Colletotrichum fragariae) | inhibition (HL-60 [6]) | inhibition (HL-60 [7])
1 | CC(C)=C/C=C/C(C)=C/CC/C(C)=C/CC/C(C)=C/CO | Non-toxic | 28% | Active | Active | 8% | Active | Active |  | 
2 | VITAMIN E |  |  |  |  |  |  |  | 32.4% | inactive
